Results: publication PMC10387993, “New pyrimidine-N-β-D-glucosides: synthesis, biological evaluation, and molecular docking investigations” (Turkish Journal of Chemistry, 2023)
Converted amounts (≈) assume the structure as drawn.

What was measured:
Type in all cases: cell-based
A549 = assay: cells; conditions: Homo sapiens
Procedure, shortened: (§1)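 Proliferation was measured with the MTT method on cells grown in serum-supplemented DMEM or RPMI 1640 and seeded near 1 × 10^4 per well. Growth parameters GI50, TGI and LC50 were computed from absorbances at time zero, in control growth and under drug.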

C6 (Rat brain glioma) = assay: cells; conditions: Rattus norvegicus
Procedure, shortened: as §1

HT29 = assay: cells; conditions: Homo sapiens
Procedure, shortened: as §1

HeLa = assay: cells; conditions: Homo sapiens
Procedure, shortened: as §1

Hep3B = assay: cells; conditions: Homo sapiens
Procedure, shortened: as §1

MCF7 = assay: cells; conditions: Homo sapiens
Procedure, shortened: as §1

in vitro = conditions: human, LC50
Procedure, shortened: as §1

normal FL cells = assay: cells; conditions: FL normal cells, MTT
Procedure, shortened: as §1

[1] = LDH cytotoxic activity assay, C6; conditions: rat, C6 glioma cells
Procedure, shortened: (§2)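 LDH release, A492–630 nm; ~5 × 10^3 cells/well, triplicate; cpd 25/50/75/100 μg/mL, 24 h, 37 °C, 5% CO2; DMEM or RPMI 1640 + 10% FBS.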

[2] = LDH cytotoxic activity assay, HeLa; conditions: human, HeLa cells
Procedure, shortened: as §2

[3] = LDH cytotoxic activity assay, HT29; conditions: human, HT29 cells
Procedure, shortened: as §2

E. coli ATCC 25922 = assay: Microdilution MIC assay; conditions: Escherichia coli, ATCC25922; E. coli ATCC 25922, 24 h at 35 °C
Procedure, shortened: (§3)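 Broth microdilution in microwells; plates incubated 24 h at 35 °C. MIC taken as the lowest concentration with no visible growth (turbidity), read by eye.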

E. coli ESBL ATCC 35218 = assay: Microdilution MIC assay; conditions: Escherichia coli, ATCC35218; E. coli ESBL ATCC 35218, 24 h at 35 °C
Procedure, shortened: as §3

E. faecalis ATCC 29212 = assay: Microdilution MIC assay; conditions: Enterococcus faecalis, ATCC29212, 24 h, E. faecalis ATCC 29212, 24 h at 35 °C; read-out: MIC
Procedure, shortened: as §3

S. aureus ATCC 25923 = assay: Microdilution MIC assay; conditions: Staphylococcus aureus, ATCC25923, 24 h, S. aureus ATCC 25923, 24 h at 35 °C; read-out: MIC
Procedure, shortened: as §3

S. gordonii NCTC 7870 = assay: Microdilution MIC assay; conditions: Streptococcus gordonii, NCTC7870; S. gordonii NCTC 7870, 24 h at 35 °C
Procedure, shortened: as §3

S. mutans ATCC 35668 = assay: Microdilution MIC assay; conditions: Streptococcus mutans, ATCC35668, 24 h, S. mutans ATCC 35668, 24 h at 35 °C; read-out: MIC
Procedure, shortened: as §3

- GI50 (A549; A549, MTT): > 500 µg/mL
- IC50 (A549; A549, MTT, read-out: IC50): > 500 µg/mL
- GI50 (C6 (Rat brain glioma); C6, MTT): 2.21 µg/mL (≈ 3.73 µM)
- IC50 (C6 (Rat brain glioma); C6, MTT, read-out: IC50): 21.9 µg/mL (≈ 36.9 µM)
- GI50 (HT29; HT-29, HT29, MTT): 2.1 µg/mL (≈ 3.54 µM)
- IC50 (HT29; HT-29, HT29, MTT, read-out: IC50): 71.1 µg/mL (≈ 120 µM)
- GI50 (HeLa; MTT): > 500 µg/mL
- IC50 (HeLa; MTT, read-out: IC50): > 500 µg/mL
- GI50 (Hep3B; MTT): 7.53 µg/mL (≈ 12.7 µM)
- IC50 (Hep3B; MTT, read-out: IC50): > 500 µg/mL
- GI50 (MCF7; MCF7, MTT): 1.66 µg/mL (≈ 2.8 µM)
- IC50 (MCF7; MCF7, MTT, read-out: IC50): > 500 µg/mL
- MIC (E. coli ATCC 25922): > 1000 µg/mL
- MIC (E. coli ESBL ATCC 35218): > 1000 µg/mL
- MIC (E. faecalis ATCC 29212): 500 µg/mL (≈ 844 µM)
- MIC (S. aureus ATCC 25923): > 1000 µg/mL
- MIC (S. gordonii NCTC 7870): > 1000 µg/mL
- MIC (S. mutans ATCC 35668): 500 µg/mL (≈ 844 µM)
Compound: CC(=O)OC[C@H]1O[C@@H](Nc2nc(-c3ccccn3)cc(-c3ccccc3C)n2)[C@H](OC(C)=O)[C@@H](OC(C)=O)[C@@H]1OC(C)=O [Compound 10, 2,3,4,6-tetra-O-acetyl-N-[4-(2-methylphenyl)-6-pyridin-2-ylpyrimidin-2-yl]-β-D-glucopyranosylamine]
- LC50 (concentration causing 50% net cell loss) (A549; A549, read-out: LC50): > 500 µg/mL
- IC (total growth inhibition) (A549; A549, MTT, read-out: TGI): > 500 µg/mL
- LC50 (concentration giving 50% net cell loss relative to time zero) (C6 (Rat brain glioma); read-out: LC50): 486 µg/mL (≈ 820 µM)
- IC (total growth inhibition) (C6 (Rat brain glioma); C6, MTT, read-out: TGI): 9.19 µg/mL
- LC50 (concentration giving 50% net cell loss relative to time zero) (HT29; HT-29, read-out: LC50): > 500 µg/mL
- IC (total growth inhibition) (HT29; HT-29, HT29, MTT, read-out: TGI): > 500 µg/mL
- IC (total growth inhibition) (HeLa; MTT, read-out: TGI): > 500 µg/mL
- LC50 (concentration causing 50% net cell loss) (HeLa; read-out: LC50): > 500 µg/mL
- IC (total growth inhibition) (Hep3B; MTT, read-out: TGI): > 500 µg/mL
- LC50 (concentration causing 50% net cell loss relative to time zero) (Hep3B; read-out: LC50): > 500 µg/mL
- LC50 (concentration causing 50% net cell loss relative to time zero) (MCF7; MCF7, read-out: LC50): > 500 µg/mL
- IC (total growth inhibition) (MCF7; MCF7, MTT, read-out: TGI): > 500 µg/mL
- LC50 (concentration causing 50% net cell loss) (in vitro): > 500 µg/mL
- GI50 (normal FL cells): 22.8 µg/mL (≈ 38.4 µM)
- IC50 (normal FL cells; read-out: IC50): > 500 µg/mL
- IC (total growth inhibition) (normal FL cells; read-out: TGI): > 500 µg/mL
- cytotoxicity at 24 h, 25 μg/mL ([1]; C6, 25 μg/mL): 22.8%
- cytotoxicity at 24 h, 50 μg/mL ([1]; C6, 50 μg/mL): 54.3%
- cytotoxicity at 24 h, 75 μg/mL ([1]; C6, 75 μg/mL): 77.1%
- cytotoxicity at 24 h, 100 μg/mL ([1]; C6, 100 μg/mL): 93.5%
- cytotoxicity at 24 h, 25 μg/mL ([2]; 25 μg/mL): 16.8%
- cytotoxicity at 24 h, 50 μg/mL ([2]; 50 μg/mL): 40.7%
- cytotoxicity at 24 h, 75 μg/mL ([2]; 75 μg/mL): 51.7%
- cytotoxicity at 24 h, 100 μg/mL ([2]; 100 μg/mL): 58.4%
- cytotoxicity at 24 h, 25 μg/mL ([3]; HT29, 25 μg/mL): 29.4%
- cytotoxicity at 24 h, 50 μg/mL ([3]; HT29, 50 μg/mL): 51.8%
- cytotoxicity at 24 h, 75 μg/mL ([3]; HT29, 75 μg/mL): 64.5%
- cytotoxicity at 24 h, 100 μg/mL ([3]; HT29, 100 μg/mL): 95.2%
